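Cells were grown in 96-well plates and exposed to each compound for 48 hours at five concentrations; endpoints were interpolated linearly between bracketing concentrations, or set to the highest concentration if not reached. GI50 is the concentration that inhibits growth by half. TGI marks complete inhibition of growth.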
Experiments:
Test in all cases: inhibition of tumour cell growth, NCI panel, 48 h
[1] = test system: SR leukemia
[2] = test system: A498 renal
[3] = test system: SK-MEL-5 melanoma
[4] = test system: A549 NSCLC
[5] = test system: MOLT-4 leukemia
[6] = test system: HT29 colon
[7] = test system: SK-OV-3 ovarian
[8] = test system: K-562 leukemia
[9] = test system: HS 578T breast
[10] = test system: T-47D breast
[11] = test system: COLO 205 colon
[12] = test system: MCF7 breast
[13] = test system: UACC-62 melanoma
[14] = test system: RPMI-8226 leukemia
[15] = test system: SN12C renal
[16] = test system: NCI-H23 lung
[17] = test system: SW-620 colon
[18] = test system: MALME-3M melanoma
[19] = test system: CAKI-1 renal
[20] = test system: PC-3 prostate
[21] = test system: 786-0 renal
[22] = test system: SNB-19 CNS
[23] = test system: NCI-H522 lung
[24] = test system: MDA-MB-435
[25] = test system: SNB-75 CNS
[26] = test system: SK-MEL-28 melanoma
[27] = test system: UACC-257 melanoma
[28] = test system: LOX IMVI melanoma
[29] = test system: NCI/ADR-RES ovarian
[30] = test system: SF-268 CNS
[31] = test system: MDA-MB-231 breast
[32] = test system: CCRF-CEM leukemia
[33] = test system: M14 melanoma
[34] = test system: TK-10 renal
[35] = test system: BT-549 breast
[36] = test system: NCI-H226 lung
[37] = test system: KM12 colon
[38] = test system: EKVX NSCLC
[39] = test system: OVCAR-3 ovarian
[40] = test system: OVCAR-8 ovarian
[41] = test system: OVCAR-5 ovarian
[42] = test system: HOP-62 NSCLC
[43] = test system: HCT-116 colon
[44] = test system: SF-295 CNS
[45] = test system: SK-MEL-2 melanoma
[46] = test system: NCI-H460 lung
[47] = test system: UO-31 renal
[48] = test system: HOP-92 NSCLC
[49] = test system: HCC-2998 colon
[50] = test system: DU-145 prostate
[51] = test system: HCT-15 colon
[52] = test system: ACHN renal
[53] = test system: OVCAR-4 ovarian
[54] = test system: IGROV1 ovarian
[55] = test system: HL-60(TB) leukemia
[56] = test system: RXF 393 renal
[57] = test system: SF-539 CNS
[58] = test system: U251 CNS

Q: Which results are given for `COc1cccc2c1-c1c(c3ccc([N+](=O)[O-])cc3c(=O)n1CCCCl)C2=O`?
A: GI50 [1]: 0.202 µM; TGI [1]: > 50 µM; GI50 [2]: 17.4 µM; TGI [2]: > 50 µM; GI50 [3]: 0.791 µM; TGI [3]: > 50 µM; GI50 [4]: > 50 µM; TGI [4]: > 50 µM; GI50 [5]: 2.23 µM; TGI [5]: > 50 µM; GI50 [6]: > 50 µM; TGI [6]: > 50 µM; GI50 [7]: 21.1 µM; TGI [7]: > 50 µM; GI50 [8]: > 50 µM; TGI [8]: > 50 µM; GI50 [9]: 25.2 µM; TGI [9]: > 50 µM; GI50 [10]: > 50 µM; TGI [10]: > 50 µM; GI50 [11]: > 50 µM; TGI [11]: > 50 µM; GI50 [12]: 0.0614 µM; TGI [12]: 0.327 µM; GI50 [13]: 2.42 µM; TGI [13]: 18.8 µM; GI50 [14]: 3.69 µM; TGI [14]: > 50 µM; GI50 [15]: 15.8 µM; TGI [15]: > 50 µM; GI50 [16]: 24.4 µM; TGI [16]: > 50 µM; GI50 [17]: 0.286 µM; TGI [17]: > 50 µM; GI50 [18]: 7.06 µM; TGI [18]: > 50 µM; GI50 [19]: 1.13 µM; TGI [19]: 24.1 µM; GI50 [20]: 7.37 µM; TGI [20]: > 50 µM; GI50 [21]: 6.4 µM; TGI [21]: 17.4 µM; GI50 [22]: 12.4 µM; TGI [22]: > 50 µM; GI50 [23]: 0.685 µM; TGI [23]: > 50 µM; GI50 [24]: > 50 µM; TGI [24]: > 50 µM; GI50 [25]: 11.6 µM; TGI [25]: 32.3 µM; GI50 [26]: > 50 µM; TGI [26]: > 50 µM; GI50 [27]: > 50 µM; TGI [27]: > 50 µM; GI50 [28]: 1.23 µM; TGI [28]: > 50 µM; GI50 [29]: > 50 µM; TGI [29]: > 50 µM; GI50 [30]: 0.00993 µM; TGI [30]: 3.96 µM; GI50 [31]: 29.5 µM; TGI [31]: > 50 µM; GI50 [32]: 1.5 µM; TGI [32]: > 50 µM; GI50 [33]: 8.57 µM; TGI [33]: > 50 µM; GI50 [34]: 11.8 µM; TGI [34]: 38.9 µM; GI50 [35]: 17.1 µM; TGI [35]: > 50 µM; GI50 [36]: 5.82 µM; TGI [36]: 41.5 µM; GI50 [37]: > 50 µM; TGI [37]: > 50 µM; GI50 [38]: > 50 µM; TGI [38]: > 50 µM; GI50 [39]: > 50 µM; TGI [39]: > 50 µM; GI50 [40]: > 50 µM; TGI [40]: > 50 µM; GI50 [41]: > 50 µM; TGI [41]: > 50 µM; GI50 [42]: 5.46 µM; TGI [42]: 15.9 µM; GI50 [43]: 2.48 µM; TGI [43]: > 50 µM; GI50 [44]: 1.82 µM; TGI [44]: > 50 µM; GI50 [45]: 48.8 µM; TGI [45]: > 50 µM; GI50 [46]: 0.972 µM; TGI [46]: > 50 µM; GI50 [47]: 1.73 µM; TGI [47]: > 50 µM

Q: Which results are given for `CC1CCN(CCCCCOc2ccc3oc4cc(Cl)ccc4c(=O)c3c2)CC1`?
A: GI50 [1]: 1.41 µM; TGI [1]: 5.18 µM; GI50 [2]: 5.97 µM; TGI [2]: 12.7 µM; GI50 [48]: 6.51 µM; TGI [48]: 14.8 µM; GI50 [3]: 5.36 µM; TGI [3]: 11.3 µM; GI50 [49]: 6.25 µM; TGI [49]: 13.1 µM; GI50 [4]: 7.49 µM; TGI [4]: 14.4 µM; GI50 [5]: 2.87 µM; TGI [5]: 10.3 µM; GI50 [50]: 7.14 µM; TGI [50]: 13.9 µM; GI50 [6]: 1.72 µM; TGI [6]: 6.2 µM; GI50 [7]: 8.45 µM; TGI [7]: 15.8 µM; GI50 [8]: 1.58 µM; TGI [8]: 6.09 µM; GI50 [51]: 1.32 µM; TGI [51]: 4.1 µM; GI50 [9]: 7.32 µM; TGI [9]: 17.8 µM; GI50 [10]: 6.86 µM; TGI [10]: 16.4 µM; GI50 [52]: 8.01 µM; TGI [52]: 14.7 µM; GI50 [11]: 6.09 µM; TGI [11]: 14.1 µM; GI50 [12]: 5.9 µM; TGI [12]: 14.2 µM; GI50 [13]: 2.24 µM; TGI [13]: 7.73 µM; GI50 [14]: 5.73 µM; TGI [14]: 15.9 µM; GI50 [15]: 6.49 µM; TGI [15]: 13.1 µM; GI50 [53]: 6.22 µM; TGI [53]: 13.6 µM; GI50 [16]: 7.36 µM; TGI [16]: 14.6 µM; GI50 [54]: 6.71 µM; TGI [54]: 15.3 µM; GI50 [17]: 6.16 µM; TGI [17]: 13.3 µM; GI50 [55]: 2.81 µM; TGI [55]: 10.5 µM; GI50 [18]: 8.41 µM; TGI [18]: 15.3 µM; GI50 [56]: 5.75 µM; TGI [56]: 12.7 µM; GI50 [20]: 6.89 µM; TGI [20]: 16.4 µM; GI50 [21]: 6.29 µM; TGI [21]: 12.7 µM; GI50 [22]: 8.03 µM; TGI [22]: 15.2 µM; GI50 [23]: 9.09 µM; TGI [23]: 18 µM; GI50 [57]: 5.9 µM; TGI [57]: 12.3 µM; GI50 [24]: 1.55 µM; TGI [24]: 5.23 µM; GI50 [25]: 6.59 µM; TGI [25]: 13 µM; GI50 [26]: 7.07 µM; TGI [26]: 13.7 µM; GI50 [27]: 1.33 µM; TGI [27]: 3.22 µM; GI50 [28]: 4.18 µM; TGI [28]: 10.9 µM; GI50 [29]: 8.14 µM; TGI [29]: 21.8 µM; GI50 [30]: 7.4 µM; TGI [30]: 15.8 µM; GI50 [31]: 7.6 µM; TGI [31]: 14.6 µM; GI50 [32]: 5.76 µM; TGI [32]: 14.2 µM; GI50 [58]: 5.69 µM; TGI [58]: 12.4 µM; GI50 [33]: 1.15 µM; TGI [33]: 2.63 µM; GI50 [34]: 7.46 µM; TGI [34]: 14.8 µM; GI50 [35]: 6.54 µM; TGI [35]: 13.1 µM; GI50 [36]: 9.42 µM; TGI [36]: 20.2 µM; GI50 [37]: 6.26 µM; TGI [37]: 14.4 µM; GI50 [38]: 7.03 µM; TGI [38]: 14.3 µM; GI50 [39]: 7 µM; TGI [39]: 14.2 µM; GI50 [40]: 7.95 µM; TGI [40]: 16 µM; GI50 [41]: 6.63 µM; TGI [41]: 13.5 µM; GI50 [43]: 2.42 µM; TGI [43]: 7.86 µM; GI50 [44]: 6.8 µM; TGI [44]: 13.2 µM; GI50 [45]: 9.3 µM; TGI [45]: 17.5 µM; GI50 [46]: 6.63 µM; TGI [46]: 13.9 µM; GI50 [47]: 5.7 µM; TGI [47]: 11.8 µM

From PubChem BioAssay (NCI)
